# Source: patent US6015879A, “Peptide and peptide analog protease inhibitors” (Sibia Neurosciences, Inc., priority 1995, dated 2000)
# Non-standard residues stand in square brackets, D forms with d. Residues, ends and D or L forms follow the SMILES beside them. ξ: configuration not given here. *: point of attachment. Chg = N[CH](C(=O)O)C1CCCCC1; Nle = CCCC[CH](N)C(=O)O; Cbz = O=C(OCc1ccccc1)*; ξNle = CCCCC(N)C(=O)O; CHN2 = [N-]=[N+]=C*
# Tested on: Aβ formation in HGB 717/Swed cells
# Experiment: Immunoblot assay for Aβ peptide (inhibition of Aβ formation)
# Assay type: cell-based, Human
# Settings: concentration of 10 μM, overnight, relative to DMSO control
row,Structure (SMILES),% INHIBITION OF Aβ [%]
1,"CC(=O)N[C@@H](CC(C)C)C(=O)N[C@@H](CC(C)C)C(=O)NC(C=O)CC1CCCCC1 (mixture of isomers) [Ac-L-L-Cha-(H), N-Ac-L-Leu-L-Leu-DL-cyclohexylalaninal]",46
2,"C=C(C)CC(C=O)NC(=O)[C@H](Cc1ccccc1)NC(=O)[C@H](CC(C)C)NC(=O)OCc1ccccc1 (mixture of isomers) [Cbz-L-F-Lene-(H), (2SR)-N-Cbz-L-Leu-L-Phe-N-[2-(4-methyl-4-pentenal)]amide]",69
3,"C=C(C)CC(C=O)NC(=O)[C@H](CC(C)C)NC(=O)[C@H](CC(C)C)NC(=O)OCc1ccccc1 (mixture of isomers) [Cbz-L-L-Lene-(H), (2SR)-N-Cbz-L-Leu-L-Leu N-[2-(4-methyl-4-pentenal)]amide]",95

# Same assay, conditions: concentration of 40 μM, overnight, relative to DMSO control
row,Structure (SMILES),% INHIBITION OF Aβ [%]
1,"C=C(C)CC(C=O)NC(=O)[C@H](CC(C)C)NC(=O)[C@H](CC(C)C)OCc1ccccc1 (mixture of isomers) [2S-benzoxyvaleric-L-Lene-(H), (2SR)-N-[(2S)-2-benzoxy-4-methylpentanoyl]-L-Leu N-[2-(4-methyl-4-pentenal)]amide]",85
2,"CC(C)C[C@H](NC(=O)OCc1ccccc1)C(=O)N[C@@H](Cc1ccccc1)C(=O)NC(C=O)CC1CCCCC1 (mixture of isomers) [Cbz-L-F-Cha-(H), (2SR)-N-Cbz-L-Leu-L-Phe-DL-cyclohexylalaninal]",100
3,"CCCCC(C=O)N(C)C(=O)[C@H](CC(C)C)NC(=O)[C@H](CC(C)C)NC(=O)OCc1ccccc1 (mixture of isomers) [Cbz-L-L-[CH3]-Nl-(H), N-Cbz-L-Leu-L-Leu-DL-(methyl)norleucinal]",97
4,"CCCCC(C=O)NC(=O)[C@H](CC(C)C)N(C)C(=O)[C@H](CC(C)C)NC(=O)OCc1ccccc1 (mixture of isomers) [Cbz-L-[CH3]-L-Nl-(H), N-Cbz-L-Leu-L-(methyl)Leu-DL-norleucinal]",77
5,"CCCCC(C=O)NC(=O)C(CC(C)C)NC(=O)C1CCCN1C(=O)OCc1ccccc1 [Cbz-P-L-Nl-(H), N-Cbz-L-Pro-L-Leu-L-norleucinal] (Cbz-Pro-Leu-[Nle]-aldehyde; configuration not given here)",80

# Same assay, conditions: concentration of 50 μM, overnight, relative to DMSO control
row,Structure (SMILES),% INHIBITION OF Aβ [%]
1,"CCCCC(C=O)NC(=O)[C@H](CC(C)C)NC(=O)[C@H](CC(C)C)NC(=O)OCC1c2ccccc2-c2ccccc21 (mixture of isomers) [Fmoc-L-L-Nl-(H), N-Fmoc-L-Leu-L-Leu-DL-norleucinal]",89

# Same assay, conditions: concentration of 75 μM, overnight, relative to DMSO control
row,Structure (SMILES),% INHIBITION OF Aβ [%]
1,"CCCCC(NC(=O)[C@H](CC(C)C)NC(=O)[C@H](CC(C)C)NC(C)=O)C(=O)C(F)(F)F (mixture of isomers) [Ac-L-L-Nl-(TFMK), (3SR)-N-Ac-L-Leu-L-Leu N-[3-(1,1,1-trifluoro-2-oxoheptyl)]amide]",50
2,"CC=CCC(C=O)NC(=O)[C@H](CC(C)C)NC(=O)[C@H](CC(C)C)NC(C)=O (mixture of isomers) [Ac-L-L-Nlene-(H), (2SR)-N-Ac-L-Leu-L-Leu N [2-(trans-4-hexenal)]amide]",96
3,CC(=O)NC(CC(C)C)C(=O)NC(CC(C)C)C(=O)NC(C=O)C1CCCCC1 [Ac-L-L-Chg-(H)] (Ac-Leu-Leu-[Chg]-aldehyde; configuration not given here),99
4,"CCCCC(C#N)NC(=O)[C@H](CC(C)C)NC(=O)[C@H](CC(C)C)NC(C)=O (stereo partly drawn) [Ac-L-L-Nl-(CN), (2S)-N-Ac-L-Leu-L-Leu N-[2-(hexanenitrile)]amide]",94
5,"CCCCC(NC(=O)[C@H](CC(C)C)NC(=O)[C@H](CC(C)C)NC(C)=O)C(=O)C=[N+]=[N-] (stereo partly drawn) [Ac-L-L-Nl-(DM), N-Ac-L-Leu-L-Leu-L-Nle-COCHN2] (Ac-Leu-Leu-[ξNle]-CHN2)",87
